Data published in patent US11186572B2, “Bacterial glutaminyl cyclases and inhibitors thereof for use in the treatment of periodontitis” (Fraunhofer-Gesellschaft zur Forderung der Angewandten …, priority 2016, dated 2021).
Read-outs that look alike come from different tables or passages of the source.

Molecular target: T1, PgQC (Porphyromonas gingivalis, UniProt Q7MT37)
T1 construct: Ki; RA (average residual QC activity of PgQC); other: c = 1 μM; other: c = 1.5 μM; other: c = 10 μM; other: c = 100 μM; other: c = 12 μM; RA; fused on or other part: N-terminal His tag from pET28a(+), cleaved off by thrombin before the enzymatic characterisation
Assay: biochemical
Parameters: species or system P. gingivalis
Details: for Ki: inhibition of PgQC, H-Gln-AMC, 50 mM Tris-HCl, 50 mM NaCl pH 8.0, 30° C.
Method: The assay consists of varying concentration of the fluorogenic substrate and 0.5 U pyroglutaminyl aminopeptidase in 50 mM Tris-HCl, 50 mM NaCl at pH 8.0. After 10 minute incubation time at 30° C. reaction was initiated by addition of bacQC to a final volume of 125 μl reaction mixture. […] All determinations were carried out in 96 well microtiter plates (Fisher Scientific) at 30° C. using the FluoStar Optima (BMG Labtech).
For inhibitor testing, the sample composition was the same as described above, except for the addition of the putative inhibitory compound. […] (∘) represents reaction without inhibitor. Determinations were carried out in 50 mM Tris-HCl, 50 mM NaCl pH 8.0 and 1% (v/v) DMSO at 30° C.
RA refers to the average residual QC activity of PgQC measured in the presence of a concentration c of the respective compound. Ki refers to the average Ki values measured as described above, and Std(Ki) refers to the standard deviation of Ki.

[1] = read-out: RA (average residual QC activity of PgQC)

c1ccc(CCN2CCc3[nH]cnc3C2)cc1 [MWT-S-00145, 5-(2-Phenylethyl)-3,4,6,7-tetrahydroimidazo[4,5-c]pyridine]
Ki (read-out: Ki (average)): 6470 nM | remaining activity at 40 µM [1]: 21%

O=C(c1cc(F)c(F)c(F)c1)N1CCc2[nH]cnc2C1 [MWT-S-00435, (1,4,6,7-Tetrahydro-5H-imidazo[4,5-c]pyridin-5-yl)(3,4,5-trifluoro-phenyl)methanone]
Ki (read-out: Ki (average)): 904 nM | remaining activity at 10 µM [1]: 16%

COc1cccc(C(=O)N2CCc3[nH]cnc3C2)c1 [MWT-S-00158, (3-Methoxyphenyl)-(3,4,6,7-tetrahydroimidazo[4,5-c]pyridin-5-yl)methanone]
Ki (read-out: Ki (average)): 335 nM | remaining activity at 2 µM [1]: 21%

O=C(c1ccc(F)cc1)N1CCc2[nH]cnc2C1 [MWT-S-00156, (4-Fluorophenyl)-(3,4,6,7-tetrahydroimidazo[4,5-c]pyridin-5-yl)methanone]
Ki (read-out: Ki (average)): 879 nM | remaining activity at 5 µM [1]: 24%

O=C(c1ccccc1)N1CCc2[nH]cnc2C1 [MWT-S-00149, Phenyl(3,4,6,7-tetrahydroimidazo[4,5-c]pyridin-5-yl)methanone]
Ki (read-out: Ki (average)): 435 nM | remaining activity at 4 µM [1]: 20%

COc1cccc(CN2CCc3[nH]cnc3C2)c1 [MWT-S-00343, 5-[(3-Methoxyphenyl)methyl]-1,4,6,7-tetrahydroimidazo[4,5-c]pyridine]
remaining activity at 1 µM [1]: 65%

O=C(c1ccc2c(c1)OCCO2)N1CCc2[nH]cnc2C1 [MWT-S-00434, (2,3-Dihydrobenzo[b][1,4]dioxin-6-yl)(1,4,6,7-tetrahydro-5H-imidazo-[4,5-c]pyridin-5-yl)methanone]
Ki (read-out: Ki (average)): 1340 nM | remaining activity at 100 µM [1]: 3%

COc1cc(C(=O)N2CCc3[nH]cnc3C2)ccc1F [MWT-S-00436, (4-Fluoro-3-methoxyphenyl)(1,4,6,7-tetrahydro-5H-imidazo[4,5-c]pyridin-5-yl)methanone]
Ki (read-out: Ki (average)): 1240 nM | remaining activity at 100 µM [1]: 3%

O=C(CCc1ccccc1)N1CCc2[nH]cnc2C1 [MWT-S-00147, 3-Phenyl-1-(3,4,6,7-tetrahydroimidazo[4,5-c]pyridin-5-yl)propan-1-one]
Ki (read-out: Ki (average)): 1750 nM | remaining activity at 12 µM [1]: 22%

c1nc2c([nH]1)CCN(Cc1ccc(OCCN3CCOCC3)cc1)C2 [MWT-S-00330, 4-[2-[4-(1,4,6,7-Tetrahydroimidazo[4,5-c]pyridin-5-ylmethyl)phenoxy]ethyl]morpholine]
Ki (Ki (average)): 940 nM | remaining activity at 8 µM [1]: 22%

O=C(c1cccc(Cl)c1)N1CCc2[nH]cnc2C1 [MWT-S-00425, (3-Chlorophenyl)(1,4,6,7-tetrahydro-5H-imidazo[4,5-c]pyridin-5-yl)methanone]
Ki (read-out: Ki (average)): 174 nM | remaining activity at 10 µM [1]: 5%

CCCOc1cccc(C(=O)N2CCc3[nH]cnc3C2)c1 [MWT-S-00432, (3-Propoxyphenyl)(1,4,6,7-tetrahydro-5H-imidazo[4,5-c]pyridin-5-yl)methanone]
Ki (read-out: Ki (average)): 780 nM | remaining activity at 100 µM [1]: 2%

O=C(c1ccc(Cl)cc1)N1CCc2[nH]cnc2C1 [MWT-S-00160, (4-Chlorophenyl)-(3,4,6,7-tetrahydroimidazo[4,5-c]pyridin-5-yl)methanone]
Ki (read-out: Ki (average)): 681 nM | remaining activity at 5 µM [1]: 20%

c1nc2c([nH]1)CCN(Cc1ccc3c(c1)OCCO3)C2 [MWT-S-00380, 5-(2,3-Dihydro-1,4-benzodioxin-6-ylmethyl)-1,4,6,7-tetrahydro-imidazo[4,5-c]pyridine]
Ki (Ki (average)): 311 nM | remaining activity at 1 µM [1]: 39%

c1ccc(C2NCCc3[nH]cnc32)cc1 (stereo not shown) [MWT-S-00264]
remaining activity at 100 µM [1]: 92%

O=C(c1ccc2c(c1)OCO2)N1CCc2[nH]cnc2C1 [MWT-S-00427, Benzo[d][1,3]dioxol-5-yl(1,4,6,7-tetrahydro-5H-imidazo[4,5-c]pyridin-5-yl)methanone]
Ki (read-out: Ki (average)): 560 nM | remaining activity at 10 µM [1]: 13%

COC(=O)/C=C/CN1CCc2[nH]cnc2C1 [MWT-S-00138, Methyl (E)-4-(3,4,6,7-tetrahydroimidazo[4,5-c]pyridin-5-yl)but-2-enoate]
Ki (Ki (average)): 3000 nM | remaining activity at 20 µM [1]: 21%

Fc1cc(CN2CCc3[nH]cnc3C2c2ccccc2)cc(F)c1F (stereo not shown) [MWT-S-00261, 4-Phenyl-5-[(3,4,5-trifluorophenyl)methyl]-3,4,6,7-tetrahydroimidazo[4,5-c]pyridine]
remaining activity at 20 µM [1]: 93%

CC1c2nc[nH]c2CCN1Cc1ccccc1 (stereo not shown) [MWT-S-00265, 5-Benzyl-4-methyl-3,4,6,7-tetrahydroimidazo[4,5-c]pyridine]
Ki (read-out: Ki (average)): 3080 nM | remaining activity at 20 µM [1]: 21%

COc1cc(OC)cc(C(=O)N2CCc3[nH]cnc3C2)c1 [MWT-S-00429, (3,5-Dimethoxyphenyl)(1,4,6,7-tetrahydro-5H-imidazo[4,5-c]pyridin-5-yl)methanone]
Ki (read-out: Ki (average)): 928 nM | remaining activity at 10 µM [1]: 16%

Fc1cc(CN2CCc3[nH]cnc3C23COC3)cc(F)c1F [MWT-S-00266, 5-[(3,4,5-Trifluorophenyl)methyl]spiro[6,7-dihydro-3H-imidazo[4,5-c]pyridine-4,3′-oxetane]]
Ki (Ki (average)): 556 nM | remaining activity at 4 µM [1]: 19%

CCCCOc1ccc(CN2CCc3[nH]cnc3C2)cc1 [MWT-S-00331, 5-[(4-Butoxyphenyl)methyl]-1,4,6,7-tetrahydroimidazo[4,5-c]pyridine]
Ki (Ki (average)): 254 nM | remaining activity at 1.5 µM [1]: 26%

c1cc(CN2CCc3[nH]cnc3C2)cc(N2CCCC2)c1 [MWT-S-00361, 5-[(3-Pyrrolidin-1-ylphenyl)methyl]-1,4,6,7-tetrahydroimidazo[4,5-c]pyridine]
remaining activity at 1 µM [1]: 80%

COc1ccc(C(=O)N2CCc3[nH]cnc3C2)cc1 [MWT-S-00157, (4-Methoxyphenyl)-(3,4,6,7-tetrahydroimidazo[4,5-c]pyridin-5-yl)methanone]
Ki (read-out: Ki (average)): 833 nM | remaining activity at 5 µM [1]: 24%

O=C(Cc1ccccc1)N1CCc2[nH]cnc2C1 [MWT-S-00148, 2-Phenyl-1-(3,4,6,7-tetrahydroimidazo[4,5-c]pyridin-5-yl)ethanone]
Ki (read-out: Ki (average)): 1680 nM | remaining activity at 8 µM [1]: 29%

Cc1ccc(CN2CCc3[nH]cnc3C2)cc1 [MWT-S-00420, 5-(p-Tolylmethyl)-1,4,6,7-tetrahydroimidazo[4,5-c]pyridine]
Ki (Ki (average)): 806 nM | remaining activity at 10 µM [1]: 16%

O=C(c1ccc2ccccc2c1)N1CCc2[nH]cnc2C1 [MWT-S-00440, Naphthalen-2-yl(1,4,6,7-tetrahydro-5H-imidazo[4,5-c]pyridin-5-yl)methanone]
Ki (read-out: Ki (average)): 126 nM | remaining activity at 10 µM [1]: 4%

O=C(c1ccc(Cl)c(Cl)c1)N1CCc2[nH]cnc2C1 [MWT-S-00159, (3,4-Dichlorophenyl)-(3,4,6,7-tetrahydroimidazo[4,5-c]pyridin-5-yl)methanone]
Ki (read-out: Ki (average)): 257 nM | remaining activity at 2 µM [1]: 18%

c1ccc(COc2ccc(CN3CCc4[nH]cnc4C3)cc2)cc1 [MWT-S-00359, 5-[(4-Benzyloxyphenyl)methyl]-1,4,6,7-tetrahydroimidazo[4,5-c]pyridine]
Ki (Ki (average)): 192 nM | remaining activity at 1 µM [1]: 31%

c1ccc(CN2CCc3[nH]cnc3C2)cc1 [MWT-S-00139, 5-Benzyl-3,4,6,7-tetrahydroimidazo[4,5-c]pyridine]
Ki (read-out: Ki (average)): 909 nM | remaining activity at 8 µM [1]: 18%

Clc1ccc(CN2CCc3[nH]cnc3C2)cc1Cl [MWT-S-00423, 5-[(3,4-Dichlorophenyl)methyl]-1,4,6,7-tetrahydroimidazo[4,5-c]pyridine]
Ki (Ki (average)): 367 nM | remaining activity at 10 µM [1]: 8%

FC1(F)Oc2ccc(CN3CCc4[nH]cnc4C3)cc2O1 [MWT-S-00344, 5-[(2,2-Difluoro-1,3-benzodioxol-5-yl)methyl]-1,4,6,7-tetrahydro-imidazo[4,5-c]pyridine]
remaining activity at 1 µM [1]: 56%

c1ccc(CN2CCc3[nH]cnc3C23COC3)cc1 [MWT-S-00260, 5-Benzylspiro[6,7-dihydro-3H-imidazo[4,5-c]pyridine-4,3′-oxetane]]
Ki (read-out: Ki (average)): 1760 nM | remaining activity at 10 µM [1]: 22%

O=C(c1ccc(-c2ccccc2)cc1)N1CCc2[nH]cnc2C1 [MWT-S-00428, [1,1′-Biphenyl]-4-yl(1,4,6,7-tetrahydro-5H-imidazo[4,5-c]pyridin-5-yl)methanone]
Ki (read-out: Ki (average)): 1900 nM | remaining activity at 1 µM [1]: 83%

O=C(/C=C/c1ccccc1)N1CCc2[nH]cnc2C1 [MWT-S-00146, (E)-3-Phenyl-1-(3,4,6,7-tetrahydroimidazo[4,5-c]pyridin-5-yl)prop-2-en-1-one]
Ki (read-out: Ki (average)): 1580 nM | remaining activity at 15 µM [1]: 18%

CC1c2nc[nH]c2CCN1C(=O)c1ccccc1 (stereo not shown) [MWT-S-00327]
remaining activity at 100 µM [1]: 18%

c1ccc(CN2CCc3[nH]cnc3C2c2ccccc2)cc1 (stereo not shown) [MWT-S-00268, 5-Benzyl-4-phenyl-3,4,6,7-tetrahydroimidazo[4,5-c]pyridine]
remaining activity at 16 µM [1]: 93%

O=C(c1cccc(F)c1)N1CCc2[nH]cnc2C1 [MWT-S-00430, (3-Fluorophenyl)(1,4,6,7-tetrahydro-5H-imidazo[4,5-c]pyridin-5-yl)methanone]
remaining activity at 1 µM [1]: 40%

COc1ccc(C(=O)N2CCc3[nH]cnc3C2)cc1OC [MWT-S-00426, (3,4-Dimethoxyphenyl)(1,4,6,7-tetrahydro-5H-imidazo[4,5-c]pyridin-5-yl)methanone]
Ki (read-out: Ki (average)): 1460 nM | remaining activity at 10 µM [1]: 26%
